Measurements reported in patent publication US11696928B2, “Compounds and use thereof in the expansion of stem cells and/or progenitor cells” (UNIVERSITE DE MONTREAL, priority 2017, dated 2023).

What was measured:
AhR = biological target: T1, AhR (Homo sapiens, UniProt P35869); assay: Inhibition of AhR-mediated gene transcription (HEK-XRE 11.1 luciferase reporter, MeBIO induction); assay type: cell-based; settings: HEK-XRE 11.1 cells, MeBIO 0.1 nM, luminescence after 24 hours
T1 construct: One of the resultant clones was named HEK-XRE 11.1, and used in the reporter gene assays; endogenous in cells; host or cells: HEK-XRE 11.1 (HEK cells stably carrying the AhR-responsive luciferase reporter X4-4.27 and phRL-CMV)
T1 sequence (P35869 11-848): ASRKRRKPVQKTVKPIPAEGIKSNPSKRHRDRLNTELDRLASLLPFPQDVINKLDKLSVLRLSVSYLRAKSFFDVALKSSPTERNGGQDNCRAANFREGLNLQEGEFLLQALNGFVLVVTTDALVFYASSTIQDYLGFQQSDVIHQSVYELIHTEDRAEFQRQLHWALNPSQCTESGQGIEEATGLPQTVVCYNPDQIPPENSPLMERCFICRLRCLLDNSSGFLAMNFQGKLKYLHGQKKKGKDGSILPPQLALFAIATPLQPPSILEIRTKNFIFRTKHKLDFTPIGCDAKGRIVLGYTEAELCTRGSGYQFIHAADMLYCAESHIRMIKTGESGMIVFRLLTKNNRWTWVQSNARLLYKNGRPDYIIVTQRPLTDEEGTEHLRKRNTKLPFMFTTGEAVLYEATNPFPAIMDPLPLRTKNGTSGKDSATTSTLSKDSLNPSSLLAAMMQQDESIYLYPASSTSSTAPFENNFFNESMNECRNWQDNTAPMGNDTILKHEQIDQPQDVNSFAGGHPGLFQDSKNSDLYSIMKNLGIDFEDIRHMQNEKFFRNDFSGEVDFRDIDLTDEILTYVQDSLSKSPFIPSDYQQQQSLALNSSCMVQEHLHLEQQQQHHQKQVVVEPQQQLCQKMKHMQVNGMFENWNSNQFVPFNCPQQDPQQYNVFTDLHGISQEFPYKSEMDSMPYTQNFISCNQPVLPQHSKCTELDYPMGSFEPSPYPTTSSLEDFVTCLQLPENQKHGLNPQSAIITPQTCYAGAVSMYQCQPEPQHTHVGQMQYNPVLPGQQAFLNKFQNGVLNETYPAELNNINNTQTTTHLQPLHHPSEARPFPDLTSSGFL
Procedure: HEK cells line was transfected with an AhR-responsive firefly luciferase reporter gene X4-4.27 and the stable transfectants generated were again transfected with phRL-CMV (a Renilla luciferase expression vector; Promega) along with pBAsi-hU6 Pur DNA (a plasmid carrying the puromycin-resistant gene; TaKaRa, Shiga, Japan), and maintained in the presence of both hygromycin B and puromycin (2 mg/mL). One of the resultant clones was named HEK-XRE 11.1, and used in the reporter gene assays.
HEK-XRE 11.1 cells were plated in 384-well plates at a density of 25,000 cells in 50 uL volume per well. The induction of ARh pathway was done by addition of MeBIO at 0.1 nM concentration. ARh antagonist compounds were then added to seeded cells in serial dilutions (8 dilutions, 1:[…] down to 5 nM) in duplicate wells. Renilla expression was not used as internal control. On each plate, Compound 1001 and SR1 were added as dose control (8 dilutions, 1:3, 5 mM down to 2.5 nM for SR1 and 2 mM down to 1 nM for compound 1001). Luminescence activity was evaluated after 24 hours culture using Lumi-384-CellTiterGlo-Corning protocol. Dose-response curves were generated using nonlinear regression in Excel.

[1] = system: Human CD34+ cord blood (CB) cells; assay: CD34+ activity assessment (7-day expansion of pre-expanded CD34+ cells, flow cytometry); assay type: cell-based; settings: concentration at which compound/vehicle ratio of CD34+ cell number is >= 1.5; 7 days, with 35 nM UM0128171; Table 1
Procedure: Human CD34+ cord blood (CB) cells were isolated from fresh units using RosetteSep™ 0034 pre-enrichment cocktail followed by CD34 positive selection using EasySep Kit™ (StemCell Technologies). The cells were then pre-expanded in bulk, by culturing at 37° C. for 6 days in HSC expansion media consisting of StemSpan ACF (StemCell Technologies) supplemented with 100 ng/mL Stem Cell Factor (SCF, Shenandoah), 100 ng/mL FMS-like Tyrosine Kinase 3 Ligand (FLT3L, Shenandoah), 50 ng/mL Thrombopoietin (TPO, Shenandoah), 2 mM GlutaMAX™ (Invitrogen), 10 μg/mL low density lipoproteins (LDL, StemCell Technologies), 10 μg/mL Ciprofloxacin and 35 nM UM0128171. […] Following the pre-expansion, cells were harvested, aliquoted and frozen until use.
For each activity assessment, CD34+ pre-expanded cells (approximately 2000 per well in a 384-well plate) were cultured in HSC expansion media, in the presence of 35 nM UM0128171. Compounds were serially diluted (1/2) in DMSO (10 dilutions per compound) and added to the cells in order to achieve a 1/1000 final dilution. StemRegenin1 (SR1) and/or Compound 1001 were included in all experiments as controls to monitor assay performance. The plate was incubated at 37° C. for 7 days in static conditions (i.e. no shaking and no addition of media). Flow cytometry analysis was performed at the end of the 7-day expansion. Cells were stained with PE-labeled anti-human CD45RA (BD Biosciences) and APC-labeled anti-human CD34 (BD Biosciences) and analyzed using Intellicyt IQue cytometer equipped with ForeCyt software. Gates were drawn around the populations of interest to obtain cell numbers and relative proportions. The EC1.5 value, which is the concentration at which the compound/vehicle ratio is greater or equal to 1.5, was calculated by plotting the CD34+ cell number against concentrations (log-scale) in a 4-PL curve and fitting the curve using IDBS XLfit (set model 251) in Microsoft Excel.

Compound | IC50 (AhR; Table 1) | EC1.5 [1] | IC50 (AhR; Table 2)
Nc1c(C(=O)Nc2ccc(F)cc2)sc2nc3c(cc12)CCC3 [Compound 1002] | < 0.05 µM |  | 
Nc1c(C(=O)Nc2ccccc2)sc2ncc(Br)cc12 [Compound 1003] | < 0.05 µM |  | 
Nc1c(C(=O)Nc2ccccc2)sc2ncc(Cl)cc12 [Compound 1004] | < 0.05 µM | 100 to 1000 nM | 
Cc1cc2c(N)c(C(=O)Nc3ccccc3)sc2nc1C [Compound 1005] | 0.05 to 0.5 µM | 100 to 1000 nM | 
Nc1c(C(=O)Nc2cccnc2)sc2nc3c(cc12)CCC3 [Compound 1006] | 0.05 to 0.5 µM | 1000 to 5000 nM | 
Nc1c(C(=O)Nc2ccccn2)sc2nc3c(cc12)CCC3 [Compound 1007] | < 0.05 µM | 100 to 1000 nM | 
Nc1c(C(=O)Nc2ccccc2)sc2ncc(C(F)(F)F)cc12 [Compound 1008] | > 0.5 µM | 100 to 1000 nM | 
Cc1cnc2sc(C(=O)Nc3ccccc3)c(N)c2c1 [Compound 1009] | < 0.05 µM |  | 
Nc1c(C(=O)Nc2ccccc2)sc2ncc(F)cc12 [Compound 1010] | 0.05 to 0.5 µM | >5000 nM | 
Nc1c(C(=O)Nc2ccncc2)sc2ncc(Cl)cc12 [Compound 1011] | < 0.05 µM | 1000 to 5000 nM | 
Nc1c(C(=O)Nc2ccncc2)sc2ncc(Br)cc12 [Compound 1012] | 0.05 to 0.5 µM |  | 
Nc1c(C(=O)Nc2ccncc2)sc2ncc(C(F)(F)F)cc12 [Compound 1013] | > 0.5 µM | 100 to 1000 nM | 
Nc1c(C(=O)Nc2ccncc2)sc2nc3c(cc12)CCC3 [Compound 1014] | 0.05 to 0.5 µM | 1000 to 5000 nM | 
Nc1c(C(=O)Nc2cccnc2)sc2ncc(C(F)(F)F)cc12 [Compound 1015] | > 0.5 µM | 100 to 1000 nM | 
N#Cc1cnc2sc(C(=O)Nc3ccccc3)c(N)c2c1 [Compound 1016] | > 0.5 µM | 100 to 1000 nM | 
Nc1c(C(=O)Nc2ccc(CCO)cc2)sc2ncc(C(F)(F)F)cc12 [Compound 1017] | 0.05 to 0.5 µM | 100 to 1000 nM | 
COCc1ccc(NC(=O)c2sc3ncc(C(F)(F)F)cc3c2N)cc1 [Compound 1018] | < 0.05 µM | 1000 to 5000 nM | 
Nc1c(C(=O)Nc2ccc(CO)cc2)sc2ncc(C(F)(F)F)cc12 [Compound 1019] | > 0.5 µM | >5000 nM | 
C#Cc1cnc2sc(C(=O)Nc3ccncc3)c(N)c2c1 [Compound 1020] | 0.05 to 0.5 µM |  | 
CCc1cnc2sc(C(=O)Nc3ccncc3)c(N)c2c1 [Compound 1021] | 0.05 to 0.5 µM |  | 
Nc1c(C(=O)Nc2ccccn2)sc2ncc(C(F)(F)F)cc12 [Compound 1022] | < 0.05 µM | 100 to 1000 nM | 
Cc1cnc(NC(=O)c2sc3ncc(C(F)(F)F)cc3c2N)s1 [Compound 1023] | 0.05 to 0.5 µM | >5000 nM | 

Compound | IC50 (AhR; Table 1) | EC1.5 [1] | IC50 (AhR; Table 2)
CCc1ccc(NC(=O)c2sc3ncc(C(F)(F)F)cc3c2N)cc1 [Compound 1024] | < 0.05 µM | 100 to 1000 nM | 
Nc1c(C(=O)Nc2ccccc2)sc2cnc(C(F)(F)F)cc12 [Compound 1025] | < 0.05 µM | 100 to 1000 nM | 
Nc1c(C(=O)Nc2ccncc2)sc2cnc(C(F)(F)F)cc12 [Compound 1026] | 0.05 to 0.5 µM | 1000 to 5000 nM | 
Nc1c(C(=O)Nc2ccccc2)sc2ccc(C(F)(F)F)nc12 [Compound 1027] | < 0.05 µM | >5000 nM | 
Nc1c(C(=O)Nc2ccncc2)sc2ccc(C(F)(F)F)nc12 [Compound 1028] | 0.05 to 0.5 µM | >5000 nM | 
Nc1c(C(=O)Nc2ccc3ncsc3c2)sc2ncc(C(F)(F)F)cc12 [Compound 1029] | 0.05 to 0.5 µM | 100 to 1000 nM | 
Nc1c(C(=O)Nc2ccc(-c3ccccc3)cc2)sc2ncc(C(F)(F)F)cc12 [Compound 1030] | 0.05 to 0.5 µM | >5000 nM | 
Nc1c(C(=O)Nc2ccc(OCc3ccccc3)cc2)sc2ncc(C(F)(F)F)cc12 [Compound 1031] | 0.05 to 0.5 µM | 100 to 1000 nM | 
Nc1c(C(=O)Nc2ccc(Br)cc2)sc2ncc(C(F)(F)F)cc12 [Compound 1037] | < 0.05 µM |  | 
Nc1c(C(=O)Nc2ccc(Br)cc2)sc2cnc(C(F)(F)F)cc12 [Compound 1049] | 0.05 to 0.5 µM |  | 
Nc1c(C(=O)Nc2ccc(-c3cccnc3)cc2)sc2ncc(C(F)(F)F)cc12 [Compound 1055] | 0.05 to 0.5 µM |  | 
Nc1c(C(=O)Nc2ccc(F)cc2)sc2ncc(C(F)(F)F)cc12 [Compound 1060] | < 0.05 µM |  | 
C=C(C)c1cnc2sc(C(=O)Nc3ccccc3)c(N)c2c1 [Compound 1090] | < 0.05 µM |  | 
CC(C)c1cnc2sc(C(=O)Nc3ccccc3)c(N)c2c1 [Compound 1103] | < 0.05 µM |  | 
C=CCc1cnc2sc(C(=O)Nc3ccccc3)c(N)c2c1 [Compound 1111] | 0.05 to 0.5 µM |  | 
CCc1cnc2sc(C(=O)Nc3ccccc3)c(N)c2c1 [Compound 1112] | 0.05 to 0.5 µM |  | 
Cc1ccc2sc(C(=O)Nc3ccccc3)c(N)c2c1 [Compound 1118] | < 0.05 µM |  | 
Nc1c(C(=O)Nc2ccc(F)cn2)sc2ncc(C(F)(F)F)cc12 [Compound 1128] |  | 100 to 1000 nM | 
CSc1ccc(NC(=O)c2sc3ncc(C(F)(F)F)cc3c2N)cc1 [Compound 1133] | < 0.05 µM |  | 
CCCc1cnc2sc(C(=O)Nc3ccccc3)c(N)c2c1 [Compound 1134] | < 0.05 µM |  | 
Nc1c(C(=O)Nc2ccccc2)oc2nc3c(cc12)CCC3 [Compound 1153] |  |  | 0.05 to 0.5 µM
